Source: patent publication US8802673B2, “Heterocyclic amine derivatives” (Hoffmann-La Roche Inc, priority 2011, dated 2014)

Experiments:
rat TAAR1 = rat TAAR1 (Rattus norvegicus (Rat), UniProt Q923Y9); assay: Radioligand binding assay on rat TAAR1; settings: rat TAAR1 (second value of the cell), HEK-293 membranes; read-out: Ki (μM) mouse/rat
Summary of the method: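 Membranes from HEK293 cells stably expressing rat TAAR1 were used, with radioligand Kd determined by saturation for each batch. Compounds (10 pM to 10 μM, in duplicate) were incubated for 1 h at 4 °C. Bound radioactivity was collected by filtration onto PEI-soaked GF/C filters and counted by scintillation.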

mouse TAAR1 = mouse TAAR1 (Mus musculus (Mouse), UniProt Q923Y8); assay: Radioligand binding assay on mouse TAAR1; settings: mouse TAAR1 (first value of the cell), HEK-293 membranes; read-out: Ki (μM) mouse/rat
Summary of the method: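 Membranes from HEK293 cells stably expressing mouse TAAR1, Kd of radioligand determined per batch by saturation. Compounds tested 10 pM to 10 μM in duplicate, incubated 1 h at 4 °C, then filtration over PEI-soaked GF/C filters and scintillation counting.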

Sequence of mouse TAAR1 (Q923Y8 whole entry): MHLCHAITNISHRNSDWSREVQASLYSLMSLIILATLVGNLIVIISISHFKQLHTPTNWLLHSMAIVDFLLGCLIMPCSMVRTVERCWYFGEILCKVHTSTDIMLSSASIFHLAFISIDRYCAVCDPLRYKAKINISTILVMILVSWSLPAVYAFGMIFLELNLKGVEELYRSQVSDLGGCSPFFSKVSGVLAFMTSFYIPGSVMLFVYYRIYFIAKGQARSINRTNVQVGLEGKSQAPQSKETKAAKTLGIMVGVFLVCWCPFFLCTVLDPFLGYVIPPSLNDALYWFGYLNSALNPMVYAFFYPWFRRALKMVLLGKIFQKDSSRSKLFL
Sequence of rat TAAR1 (Q923Y9 whole entry): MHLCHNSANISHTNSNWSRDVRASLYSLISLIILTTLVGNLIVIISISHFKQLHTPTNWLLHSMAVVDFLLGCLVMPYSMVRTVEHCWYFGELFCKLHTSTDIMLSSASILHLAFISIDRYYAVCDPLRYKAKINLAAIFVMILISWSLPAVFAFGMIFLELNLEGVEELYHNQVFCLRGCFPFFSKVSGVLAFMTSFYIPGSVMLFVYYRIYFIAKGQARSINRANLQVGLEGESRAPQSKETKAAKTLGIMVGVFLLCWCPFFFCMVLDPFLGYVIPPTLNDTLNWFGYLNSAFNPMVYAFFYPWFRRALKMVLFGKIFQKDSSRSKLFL

Structure (SMILES) | Ki (rat TAAR1) [µM] | Ki (mouse TAAR1) [µM]
Clc1cc(Nc2ccc([C@H]3CNCCO3)cc2)c(Cl)cn1 [Example 63, (S)-2,5-Dichloro-N-(4-(morpholin-2-yl)phenyl)pyridin-4-amine] | 1.49 | 0.373
c1cc([C@H]2CNCCO2)ccc1Nc1ccc2c(c1)OCO2 [Example 65, (S)—N-(4-(Morpholin-2-yl)phenyl)benzo[d][1,3]dioxol-5-amine] | 0.629 | 0.0131
Clc1ccc(Nc2ccc([C@@H]3CNCCO3)cc2)cn1 [Example 67, (R)-6-Chloro-N-(4-(morpholin-2-yl)phenyl)pyridin-3-amine] | 0.292 | 0.0074
CCc1cnc(Nc2ccc([C@@H]3CNCCO3)cc2)nc1 [Example 68, (R)-5-Ethyl-N-(4-(morpholin-2-yl)phenyl)pyrimidin-2-amine] | 0.0751 | 0.0094
CCOc1cc(Nc2ccc([C@H]3CNCCO3)cc2)cnc1Cl [Example 71, (S)-6-Chloro-5-ethoxy-N-(4-(morpholin-2-yl)phenyl)pyridin-3-amine] | 0.168 | 0.0118
CCc1cnc(Nc2ccc([C@H]3CNCCO3)cc2)nc1C [Example 72, (5-Ethyl-4-methyl-pyrimidin-2-yl)-((S)-4-morpholin-2-yl-phenyl)-amine] | 0.22 | 0.0171
O=[N+]([O-])c1cnc(Nc2ccc([C@H]3CNCCO3)cc2)nc1 [Example 75, ((S)-4-Morpholin-2-yl-phenyl)-(5-nitro-pyrimidin-2-yl)-amine] | 0.228 | 0.0141
CS(=O)(=O)c1cnc(Nc2ccc([C@H]3CNCCO3)cc2)nc1 [Example 78, (5-Methanesulfonyl-pyrimidin-2-yl)-((S)-4-morpholin-2-yl-phenyl)-amine] | 3.19 | 0.11
CCCc1cnc(Nc2ccc([C@@H]3CNCCO3)cc2)nc1 [Example 93, ((R)-4-Morpholin-2-yl-phenyl)-(5-propyl-pyrimidin-2-yl)-amine] | 0.0222 | 0.005

Next, values leading:

Ki (rat TAAR1) [µM] | Ki (mouse TAAR1) [µM] | Structure (SMILES)
0.0094 | 0.0005 | Cc1cc(Nc2ccc([C@H]3CNCCO3)cc2)ncc1Br [Example 62, (S)-5-Bromo-4-methyl-N-(4-(morpholin-2-yl)phenyl)pyridin-2-amine]
0.101 | 0.0027 | Cc1cnc(Nc2ccc([C@H]3CNCCO3)cc2)cc1Br [Example 64, (S)-4-Bromo-5-methyl-N-(4-(morpholin-2-yl)phenyl)pyridin-2-amine]
0.0438 | 0.0014 | Clc1ccc(Nc2ccc([C@@H]3CNCCO3)cc2)nc1 [Example 69, (R)-5-Chloro-N-(4-(morpholin-2-yl)phenyl)pyridin-2-amine]
0.035 | 0.0096 | Cc1nc(Nc2ccc([C@H]3CNCCO3)cc2)ncc1C(C)C [Example 73, (5-Isopropyl-4-methyl-pyrimidin-2-yl)-((S)-4-morpholin-2-yl-phenyl)-amine]
0.0295 | 0.0059 | c1cc([C@H]2CNCCO2)ccc1Nc1ncc2c(n1)CCCC2 [Example 74, ((S)-4-Morpholin-2-yl-phenyl)-(5,6,7,8-tetrahydro-quinazolin-2-yl)-amine]
0.13 | 0.0053 | Fc1cc(Cl)cnc1Nc1ccc([C@H]2CNCCO2)cc1 [Example 77, (S)-5-Chloro-3-fluoro-N-(4-(morpholin-2-yl)phenyl)pyridin-2-amine]
0.0101 | 0.0008 | FC(F)(F)c1cc(Nc2ccc([C@H]3CNCCO3)cc2)ncc1Cl [Example 82, (S)-5-Chloro-N-(4-(morpholin-2-yl)phenyl)-4-(trifluoromethyl)pyridin-2-amine]
0.0222 | 0.0006 | Cc1cc(Nc2ccc([C@H]3CNCCO3)cc2)ncc1Cl [Example 83, (S)-5-Chloro-4-methyl-N-(4-(morpholin-2-yl)phenyl)pyridin-2-amine]
0.009 | 0.0024 | c1cc([C@@H]2CNCCO2)ccc1Nc1ncc(C2CC2)cn1 [Example 86, (5-Cyclopropyl-pyrimidin-2-yl)-((R)-4-morpholin-2-yl-phenyl)-amine]
